According to PubChem BioAssay AID435010 (Broad Institute, 2010):
Inconclusive results are not listed. Active and inactive are the calls of the source. How the calls were made is not given here.

Molecular target: Protein RecA (Mycobacterium tuberculosis (strain ATCC 25618 / H37Rv)) (UniProt P9WHJ3)
Experiment: RecA intein splicing inhibitors, Mycobacterium tuberculosis, cell free fluorescence, confirmatory dose response (AID 435010)

Chain of Protein RecA (Mycobacterium tuberculosis (strain ATCC 25618 / H37Rv)) (P9WHJ3 whole entry, looked up): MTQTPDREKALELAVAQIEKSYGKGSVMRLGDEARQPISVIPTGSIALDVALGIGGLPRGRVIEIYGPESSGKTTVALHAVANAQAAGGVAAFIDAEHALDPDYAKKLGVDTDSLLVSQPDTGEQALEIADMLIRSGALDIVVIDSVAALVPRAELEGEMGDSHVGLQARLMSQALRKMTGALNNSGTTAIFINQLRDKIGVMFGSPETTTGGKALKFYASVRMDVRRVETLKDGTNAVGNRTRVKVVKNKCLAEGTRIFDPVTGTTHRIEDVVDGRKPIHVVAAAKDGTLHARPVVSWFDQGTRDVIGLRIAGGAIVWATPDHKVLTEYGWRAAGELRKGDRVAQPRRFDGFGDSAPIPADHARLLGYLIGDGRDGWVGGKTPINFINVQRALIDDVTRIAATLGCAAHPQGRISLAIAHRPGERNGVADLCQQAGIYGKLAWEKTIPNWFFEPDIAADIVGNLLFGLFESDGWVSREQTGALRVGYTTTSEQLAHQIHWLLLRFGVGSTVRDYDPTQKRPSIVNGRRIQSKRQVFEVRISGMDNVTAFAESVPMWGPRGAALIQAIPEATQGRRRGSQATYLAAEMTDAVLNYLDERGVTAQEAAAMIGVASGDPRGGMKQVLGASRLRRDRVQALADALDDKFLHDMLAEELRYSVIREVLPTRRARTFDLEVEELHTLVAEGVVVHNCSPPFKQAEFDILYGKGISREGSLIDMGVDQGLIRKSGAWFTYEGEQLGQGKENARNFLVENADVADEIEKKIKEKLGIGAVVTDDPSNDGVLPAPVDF

Row | SMILES | EC50
1 | N[C@@H]1CCCC[C@H]1N.O=C(O)C(=O)O.[Pt] | 32.5 µM
2 | CC1=NN(Cc2ccccc2)C(=O)/C1=C\c1ccc(N(C)C)cc1 | > 38 µM (inactive)
3 | O=C(CCCN1C(=O)/C(=C/c2ccccc2)SC1=S)Nc1ccc(O)cc1 | > 38 µM (inactive)
